The values that follow come from US20250319139A1, “METHODS FOR TREATING NEUROINFLAMMATION” (University of Virginia Patent Foundation, priority 2021, published 2025).

The subject of one data set is C57BL/6J mice. The experiment in a line: Barnes maze test, young adult mice. It counts as in vivo, mouse.
The subject of the next data set is C3. Kind of data set: C3 in the hippocampus by ELISA. The format is in vivo, mouse. On the procedure: IL-1β, IL-6, C3 and GDNF in the hippocampus were detected by using ELISA kits. For testing the IL-1β, IL-6 and GDNF, brain tissues were homogenized on ice in the RIPA buffer containing 25 mM Tris-HCl with pH 7.6, 150 mM NaCl, 1% sodium deoxycholate, 0.1% SDS and a protease inhibitor cocktail containing 10 mg/ml aproteinin, 5 mg/ml peptastin, 5 mg/ml leupetin and 1 mM phenylmethane sulfonylfluoride. For C3 testing, brain tissues were homogenized on ice in the PTR buffer (supplied in the kit). The supernatant was collected for ELISA detection after the homogenate was centrifuged at 13,000 g for 20 min at 4° C. and the protein concentration was determined by the BCA protein assay (Bio-Rad, Hemel Hempstead, Herts, UK). IL-1β, IL-6, C3 and GDNF in supernatant of brain were detected according to the manufacturer's instruction for ELISA, and the amount of them in each sample in the brain was normalized by its total protein content and was expressed as pg/mg protein.
On the technique in general: ELISA stands for enzyme-linked immunosorbent assay.

The subject of another data set is Iba-1. Kind of data set: Iba-1 immunofluorescent staining of hippocampus. It counts as in vivo, mouse. The conditions noted are these: young adult mice with exercise and surgery; intraperitoneal valeric acid. On the procedure:
(§1) The immunofluorescent labeling and quantification of the staining were performed as described before. Briefly, brain was fixed in 4% paraformaldehyde at 4° C. for 24 h and then incubated in 30% sucrose over night at 4° C. before being frozen in optimal cutting temperature compound. Coronal 20-μm thick sections were cut sequentially from Bregma -3 to -6 mm by using a cryostat and mounted on microscope slides. After being washed in Tris-buffered saline (TBS), sections were blocked in 10% donkey serum plus 1% bovine serum albumin (BSA) in TBS containing 0. 3% triton-X 100 for 2 h at room temperature and then incubated at 4° C. overnight with the following primary antibodies: rabbit monoclonal anti-C3 antibody (1:50), goat monoclonal anti-GFAP antibody (1:200), rat monoclonal anti-[…] antibody (1:50) and rabbit monoclonal anti-Iba-1 antibody (1:200). Sections were rinsed in TBS with 0.1% Triton-x 100. […] The quantification was performed as described previously. […] The number of pixels per image with intensity above a predetermined threshold level was considered as a positively stained area for an interested marker and quantified using the Image-pro plus 6.0 (Media Cybernetics, Inc., Rockville, MD, USA) and presented as percentage of positive area in the total area. […] All quantitative analyses were performed in a blinded manner.

The next data set concerns C3ar. Kind of data set: C3ar immunofluorescent staining of hippocampus. It counts as in vivo, mouse. Conditions: young adult mice with exercise and surgery; intraperitoneal valeric acid. On the procedure:
as §1

Another data set relates to IL-6. Kind of data set: ELISA of IL-6 in the serum. The conditions noted are these: young mice, 100 mg/kg intraperitoneal 1 h before and 6 h after 120-min MCAO; 24 h after MCAO; vs saline. It counts as in vivo, mouse. On the procedure:
Mice were weighed and anesthetized with isoflurane at 24 h after MCAO. Blood samples were obtained from the right heart after thoracotomy. Blood was centrifuged (13,000 g, 4° C.) after it had been placed at 4° C. for 2 h for the collection of serum. After the collection of blood, mice were perfused with 4° C. saline for brain tissue harvesting. The cerebral cortex (anteroposterior: −1.5 to 2.5 mm, mediolateral: 1.0 to 3.0 mm) was dissected out. All dissection procedures were performed on ice.
IL-10, IL-17, IL-1β and IL-6 in the serum and brain were detected by using ELISA kits (catalog number: M1000B, M1700, MLB00C and D6050, R&D SYSTEM, Inc., Minneapolis, MN, USA) as we described before. The brain tissues were homogenized on ice in the RIPA buffer containing 25 mM Tris-HCl with pH 7.6, 150 mM NaCl, 1% sodium deoxycholate and 0.1% SDS (catalog number: 89901, Thermo Scientific, Rockford, IL, USA) and a protease inhibitor cocktail containing 10 mg/ml aproteinin, 5 mg/ml peptastin, 5 mg/ml leupetin and 1 mM phenylmethane sulfonylfluoride (catalog number: SRE0055, Sigma-Aldrich, St. Louis, MO, USA). The supernatant was collected for ELISA detection after being centrifuged for 20 min (13,000 g, 4° C.) and the protein concentration was determined by the BCA method. Cytokines in the serum and supernatant of brain were detected according to the manufacturer's instruction. […]

For data set [1] the following is noted: references [27, 32]; cited from earlier work.

As to `CCCCC(=O)O` [valeric acid], in the data set with C57BL/6J mice (13-week old mice without surgery, intracerebroventricular 4 mg/kg once daily for 4 days (1/50 dose of intraperitoneal injection)), the “performance in the Barnes maze” value is “did not affect the performance”. The “time to identify target box in the Barnes maze test” value with C57BL/6J mice (young adult mice with exercise and surgery, valeric acid 200 mg/kg intraperitoneal once a week vs normal saline) was “reversed the effects of exercise”. In addition, the “C3 in the brain (hippocampus)” value in the data set with C3 (9-week old control mice, intraperitoneal valeric acid vs normal saline) is “increased”. In addition, in the data set with C3 (young adult mice with exercise and surgery, intraperitoneal valeric acid), the “exercise-induced reduction of C3 in the hippocampus” value is recorded as “this reduction was blocked”. In addition, the “exercise-induced reduction of Iba-1 in the hippocampus” value with Iba-1 was “this reduction was blocked”. Moreover, the “exercise-induced reduction of C3ar in the hippocampus” value in the data set with C3ar is reported as “this reduction was blocked”. Besides, the “IL-6 in the blood” value with IL-6 is “increased”. In addition, the “crossing of blood-brain barrier” value in data set [1] was “can cross blood-brain barrier”.
